Laboratory results as given in publication PMC10117910, “Recombinant production, purification, and biochemical characterization of a novel L-lactate dehydrogenase from Bacillus cereus NRC1 and inhibition study of mangiferin” (Frontiers in Bioengineering and Biotechnology, 2023).

What was measured:
[1] = molecular target: T1, L-lactate dehydrogenase (Bc-LDH) (Bacillus cereus, UniProt Q81EP4); experiment: LDH activity assay (NADH absorbance at […] nm) of purified enzyme; Lineweaver-Burk and Dixon plots; assay type: biochemical
T1 construct: gene ldh1; full-length, 314 amino acids (GenBank BDI00612.1), recombinant from pET28-Bc-LDH in E. coli BL21 (DE3)
T1 sequence (Q81EP4 whole entry): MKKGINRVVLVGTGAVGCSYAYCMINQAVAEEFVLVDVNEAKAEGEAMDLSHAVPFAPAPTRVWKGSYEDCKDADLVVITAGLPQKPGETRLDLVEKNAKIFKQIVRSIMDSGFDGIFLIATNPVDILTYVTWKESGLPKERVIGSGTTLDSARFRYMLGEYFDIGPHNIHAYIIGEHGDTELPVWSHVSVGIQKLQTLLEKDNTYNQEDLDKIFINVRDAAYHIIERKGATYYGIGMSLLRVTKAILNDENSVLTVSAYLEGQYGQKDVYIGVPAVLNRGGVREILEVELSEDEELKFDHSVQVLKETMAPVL

[2] = molecular target: Bacillus cereus NRC1 L-lactate dehydrogenase (Bacillus cereus NRC1) (UniProt P0A392); experiment: SEC; gel filtration on a calibrated Sephacryl S-300 column (142 cm × 1.75 cm i.d.), eluted with 0.02 M phosphate buffer pH 7.5; native mass compared with the subunit mass by SDS-PAGE (35 kDa)

stoichiometry N [2]	Compound	Ki [1] [µM]
–	O=c1c2cc(O)c(O)cc2oc2cc(O)c([C@@H]3O[C@H](CO)[C@@H](O)[C@H](O)[C@H]3O)c(O)c12 [mangiferin, 2-β-D-glucopyranosyl-1,3,6,7-tetrahydroxy-9H-xanthen-9-one]	75
4	Bacillus cereus NRC1 L-lactate dehydrogenase (from UniProt P0A392 1-366) (enzyme)	–
